Results taken from PMC6254274, “Cytotoxic Components of Pereskia bleo (Kunth) DC. (Cactaceae) Leaves” (Molecules, 2009).
Where “and” joins values, the source holds several entries; their conditions need not be identical. Identical values can stand only once. Like-named read-outs stand apart in the source and are kept apart here.

Columns and labels:
[1] = test system: human nasopharyngeal epidermoid carcinoma cell line (KB); experiment: In vitro Neutral Red cytotoxicity assay, KB; format: cell-based; conditions: 72 h; for IC50: read-out: Cytotoxicity (IC50) KB
From the text: (§1) No effect due to the DMSO was observed. Doxorubicin was used as the positive control. The well containing untreated cells was the negative control.
(§2) Cytotoxicity of each sample is expressed as IC50 value.

[2] = test system: human hormone-dependent breast carcinoma cell line (MCF7); experiment: In vitro Neutral Red cytotoxicity assay, MCF7; format: cell-based; conditions: for IC50: read-out: Cytotoxicity (IC50) MCF7
From the text: The well containing untreated cells was the negative control.
as §2

[3] = test system: human cervical carcinoma cell line (CasKi); experiment: In vitro Neutral Red cytotoxicity assay, CasKi; format: cell-based; conditions: 72 h; for IC50: read-out: Cytotoxicity (IC50) CasKi
From the text: as §1, §2

[4] = test system: human colon carcinoma cell line (HCT 116); experiment: In vitro Neutral Red cytotoxicity assay, HCT 116; format: cell-based; conditions: for IC50: read-out: Cytotoxicity (IC50) HCT 116
From the text: as §1, §2

[5] = test system: human lung carcinoma cell line (A549); experiment: In vitro Neutral Red cytotoxicity assay, A549; conditions: for IC50: read-out: Cytotoxicity (IC50) A549
Protocol: The in vitro cytotoxicity assay was carried out using a Neutral Red cytotoxicity assay as previously described by Borenfreund and Puerner with some modifications; this test determines the accumulation of the Neutral Red dye in the lysosomes of viable and uninjured cells.
Human nasopharyngeal epidermoid carcinoma cell line (KB), human cervical carcinoma cell line (CasKi), human colon carcinoma cell line (HCT 116), human hormone-dependent breast carcinoma cell line (MCF7), human lung carcinoma cell line (A549) and non-cancer human fibroblast cell line (MRC-5) were purchased from the American Tissue Culture Collection (ATCC, USA). KB cells were maintained in Medium 199 (Sigma), CasKi, A549 and MCF7 cells in RPMI 1640 medium (Sigma), HCT 116 in McCOY’S 5A Medium (Sigma) and MRC-5 cells in EMEM (Eagle Minimum Essential Medium) (Sigma), supplemented with 10% foetal bovine serum (FBS, PAA Lab, Austria), 100 µg/mL penicillin or streptomycin (PAA Lab, Austria) and 50 µg/mL of fungizone (PAA Lab, Austria). The cells were cultured in a 5% CO2 incubator (Shel Lab water-jacketed) kept at 37°C in a humidified atmosphere.
The Neutral Red cytotoxicity assay is based on the initial protocol described by Borenfreund and Puerner with some modifications. Briefly, the cells (1x10^4/well) were seeded in 96-well microtiter plates (Nunc) and allowed to grow for 24 hours before treatment. After 24 hours of incubation, the cells were treated with six different concentrations (0.1-100 µg/mL) of test compounds, in three replicates. The plates were further incubated for 72 h at 37°C in a 5% CO2 incubator. A stock solution was initially obtained by dissolving the test compounds in DMSO. Further dilution to different tested concentrations were then carried out ensuring that the final concentration of DMSO in the test and control wells was not in excess of 1% (v/v). […] The well containing untreated cells was the negative control. At the end of the incubation period, the media were replaced with medium containing 50 µg/mL of Neutral Red. The plates were incubated for another 3 hours to allow for uptake of the vital dye into the lysosomes of viable and […] cells. After the incubation period, the media were removed and cells were washed with the neutral red washing solution. The dye was eluted from the cells by adding 200 µL of Neutral Red resorb solution and incubated for 30 minutes at room temperature with rapid agitation on a microtiter plate shaker. Dye absorbance was measured at 540 nm using a spectrophotometer ELISA plate reader. The average data from triplicates were expressed in terms of killing percentage relative to negative control. The percentage of inhibition (%) of each of the test samples was calculated according to the following formula: [drawing 1] where OD control: Optical Density of negative control; OD sample: Optical Density of sample
Cytotoxicity of each sample is expressed as IC50 value. The IC50 value is the concentration of test compounds that cause 50 % inhibition or cell death, averaged from the three experiments, and was obtained by plotting the percentage inhibition versus concentration of test compounds. […] However, we recognized that whether an IC50 value corresponds to a significant or non-significant cytotoxicity depends on the sensitivity of the cell line.

[6] = In vitro Neutral Red cytotoxicity assay, MRC-5; format: cell-based, human; conditions: human
From the text: as §1, §2

[7] = test system: non-cancer human fibroblast cell line (MRC-5); experiment: In vitro Neutral Red cytotoxicity assay, MRC-5; format: cell-based; conditions: MRC-5 cells, 72 h
From the text: as §1, §2

[8] = Homo sapiens, KB cells, Neutral Red
[9] = Homo sapiens, KB cells, Neutral Red, value in parentheses
[10] = Homo sapiens, MCF7 cells, 72 h, Neutral Red
[11] = Homo sapiens, MCF7 cells, 72 h, Neutral Red, value in parentheses
[12] = Homo sapiens, Ca-Ski, CasKi cells, Neutral Red
[13] = Homo sapiens, Ca-Ski, CasKi cells, Neutral Red, value in parentheses
[14] = Homo sapiens, HCT 116 cells, 72 h, Neutral Red
[15] = Homo sapiens, HCT 116 cells, 72 h, Neutral Red, value in parentheses
[16] = MRC-5 cells (non-cancer fibroblast cell line)
[17] = MRC-5 cells (non-cancer fibroblast cell line), value in parentheses

Compound | IC50 [1, 8] | IC50 [1, 9] | IC50 [2, 10] | IC50 [2, 11] | IC50 [3, 12] | IC50 [3, 13] | IC50 [4, 14] | IC50 [4, 15] | IC50 ([5]; Homo sapiens, A549, 72 h) | IC50 at 72 h [6, 16] | IC50 at 72 h [6, 17] | also measured
CC(C)(C)c1ccc(O)c(C(C)(C)C)c1 [2,4-di tert butylphenol (5), 2,4-di-tert-butylphenol] | 0.81 µg/mL | 3.93 µM | 5.75 µg/mL | 27.9 µM | 4.5 µg/mL | 21.8 µM | 29 µg/mL | 141 µM | 6 µg/mL and 29.1 µM | 20 µg/mL | 97.1 µM | 
CC1(C)CCCC2(C)OC(=O)C=C12 (stereo not shown) [Dihydroactinidiolide (1), Dihydroactinidiolide] | 6.7 µg/mL | 37.2 µM | 30 µg/mL | 167 µM | 40 µg/mL | 222 µM | 5 µg/mL | 27.8 µM | 97 µg/mL and 539 µM | 91.3 µg/mL | 507 µM | 
phytol [Phytol (7)] |  |  |  |  |  |  |  |  |  |  |  | Cytotoxicity (IC50) KB ([1]; KB cells, Neutral Red): 7.1 µg/mL; IC50 ([1]; KB cells, Neutral Red, value in parentheses): 24 µM; Cytotoxicity (IC50) MCF7 ([2]; MCF7 cells, 72 h, Neutral Red): 34 µg/mL; IC50 ([2]; MCF7 cells, 72 h, Neutral Red, value in parentheses): 115 µM; Cytotoxicity (IC50) CasKi ([3]; CasKi cells, Neutral Red): 18 µg/mL; IC50 ([3]; CasKi cells, Neutral Red, value in parentheses): 60.8 µM; Cytotoxicity (IC50) HCT 116 ([4]; HCT 116 cells, 72 h, Neutral Red): 100 µg/mL; IC50 ([4]; HCT 116 cells, 72 h, Neutral Red, value in parentheses): 338 µM; Cytotoxicity (IC50) A549 ([5]; A549 cells, 72 h, Neutral Red): 31 µg/mL; IC50 ([5]; A549 cells, 72 h, Neutral Red, value in parentheses): 105 µM; Cytotoxicity (IC50) MRC-5 [7]: 74.3 µg/mL; IC50 ([7]; value in parentheses): 251 µM
CC[C@H](CC[C@@H](C)[C@H]1CC[C@H]2[C@@H]3CC=C4C[C@@H](O)CC[C@]4(C)[C@H]3CC[C@]12C)C(C)C [β -sitosterol (4), β-sitosterol] |  |  |  |  |  |  |  |  | 78 µg/mL and 188 µM |  |  | IC50 ([1]; Homo sapiens, KB): > 100 µg/mL and > 242 µM; IC50 ([2]; Homo sapiens, MCF7, 72 h): 72 µg/mL and 174 µM; IC50 ([3]; Homo sapiens, Ca-Ski): 62 µg/mL and 150 µM; IC50 ([4]; Homo sapiens, HCT-116, 72 h): > 100 µg/mL and > 242 µM; IC50 at 72 h ([6]; MRC-5 cells): > 100 µg/mL; IC50 at 72 h ([6]; MRC-5 cells, value in parentheses): > 242 µM
Cc1c(C)c2c(c(C)c1O)CC[C@@](C)(CCC[C@H](C)CCC[C@H](C)CCCC(C)C)O2 [α-tocopherol (6), α-tocopherol] | 8 µg/mL | 18.6 µM | 7.5 µg/mL | 17.4 µM | 6 µg/mL | 14 µM | 31 µg/mL | 72.1 µM | 6 µg/mL and 13.9 µM | 30.5 µg/mL | 70.9 µM | 
COc1cccc2c1C(=O)c1c(O)c3c(c(O)c1C2=O)C[C@@](O)(C(=O)CO)C[C@@H]3O[C@H]1C[C@H](N)[C@H](O)[C@H](C)O1 [Doxorubicin, reference compound] | 0.013 µg/mL | 0.023 µM |  |  | 0.006 µg/mL | 0.011 µM | 0.36 µg/mL | 0.663 µM | 0.22 µg/mL and 401 nM | 0.55 µg/mL | 1.01 µM | 
